Reference: patent EP1923473B1, “Bis-diglycolamides (BISDGA) as new extractants for lanthanides [Ln(III)] and actinides [An(III)] from aqueous high-level wastes” (Universidad Autónoma de Madrid, priority 2006, dated 2008)

Test: Batch extraction from simulated HLLW from the PUREX process
Assay type: physicochemical
Conditions: 0.1 mol/L in TPH/1-octanol (90:10)
Excerpt: The feed solution used for the extraction tests is a simulated solution of an HLLW from the PUREX process, the composition of which is shown in Table 4. Table 4: Composition of the simulated HLLW-PUREX solution used for the extraction tests
The composition of the HLLW corresponds to a burn-up of 33 GWd/tHM, the generated volume of HLLW being 5000 1/t of fuel. The feed was spiked with ^241Am, ^244Cm, ^252Cf and ^152Eu. Oxalic acid and N-(2-hydroxyethyl)ethylenediaminotriacetate (HEDTA) were also added before the extraction tests.
500 µL of the aqueous and organic phases were spiked with 10 µL of a tracer solution containing 241Am, 244Cm, 252Cf and ^152Eu, and were equilibrated for 10 minutes while they were stirred vigorously in a vortex stirrer. After the separation of the phases by centrifugation, 200 µL aliquots of each phase were taken for the determination of the concentration of ^241Am and ^152Eu using a high-purity germanium spectrometer system (EG&G Ortec). The nuclides ^241Am, ^244Cm and ^252Cf were measured by alpha spectrometry with an α-Analyst device of the company Canberra-Packard GmbH, Germany.
The concentrations of the stable elements were determined by mass spectrometry with an inductively coupled plasma source (ICP-MS) in a DRC Elan 6100 device of Perkin Elmer Sciex. The aqueous phase was measured directly after the appropriate dilution. The organic phase was analyzed after having mineralized the organic matter by microwave acid digestion and subsequent dilution.
The distribution coefficients were calculated for each element according to section C).
A 0.1 mol/L solution of compound 4 in the "TPH/1-octanol (90:10)%vol" mixture was prepared. Extraction experiments were carried out with said simulated HLLW in a pure form and also adding oxalic acid and HEDTA to it. These complexing agents have shown to be effective in the DIAMEX process for the complexing of Mo, Zr (H2C2O4) and Pd (HEDTA).
Extraction experiments were carried out with said simulated HLLW in a pure form and also adding oxalic acid and HEDTA to it.

[1] = Oxalic acid 0.2 mol/L, HEDTA 0.05 mol/L, TBP 0.5 mol/L
[2] = Oxalic acid 0.2 mol/L, HEDTA 0.05 mol/L, TBP No
[3] = Oxalic acid 0.3 mol/L, HEDTA 0.05 mol/L, TBP 0.5 mol/L
[4] = Oxalic acid 0.3 mol/L, HEDTA 0.05 mol/L, TBP No
[5] = Oxalic acid No, HEDTA No, TBP 0.5 mol/L
[6] = Oxalic acid No, HEDTA No, TBP No

## 2-Dioctylcarbamoylmethoxy-N-[3-[3-(2-dioctylcarbamoyl-methoxyacetylamino)propoxy]propyl]acetamide [Compound 18]
[1]
  Distribution coefficients Ag: 0.19
  Distribution coefficients Ba: 0.0008
  Distribution coefficients Cd: 0.022
  Distribution coefficients Ce: 20
  Distribution coefficients Cf-252: 666
  Distribution coefficients Cm-244: 95
  Distribution coefficients Cs: 0.0005
  Distribution coefficients Eu: 309
  Distribution coefficients Eu-152: 282
  Distribution coefficients Gd: 140
  Distribution coefficients La: 12
  Distribution coefficients Mo: 0.15
  Distribution coefficients Nd: 69
  Distribution coefficients Pd: 0.05
  Distribution coefficients Pr: 32
  Distribution coefficients Rb: 0.008
  Distribution coefficients Rh: 0.003
  Distribution coefficients Ru: 0.22
  Distribution coefficients Sm: 284
  Distribution coefficients Y: 631
  Distribution coefficients Zr: 0.18
[2]
  Distribution coefficients Ag: 0.5
  Distribution coefficients Ba: 0.0008
  Distribution coefficients Cd: 0.032
  Distribution coefficients Ce: 24
  Distribution coefficients Cf-252: 511
  Distribution coefficients Cm-244: 85
  Distribution coefficients Cs: 0.0004
  Distribution coefficients Eu: 341
  Distribution coefficients Eu-152: 523
  Distribution coefficients Gd: 197
  Distribution coefficients La: 12
  Distribution coefficients Mo: 0.21
  Distribution coefficients Nd: 101
  Distribution coefficients Pd: 0.10
  Distribution coefficients Pr: 44
  Distribution coefficients Rb: 0.008
  Distribution coefficients Rh: 0.004
  Distribution coefficients Ru: 0.21
  Distribution coefficients Sm: 432
  Distribution coefficients Y: 618
  Distribution coefficients Zr: 0.51
[3]
  Distribution coefficients Ag: 0.08
  Distribution coefficients Ba: 0.0008
  Distribution coefficients Cd: 0.024
  Distribution coefficients Ce: 22
  Distribution coefficients Cf-252: 1353
  Distribution coefficients Cm-244: 164
  Distribution coefficients Cs: 0.0004
  Distribution coefficients Eu: 335
  Distribution coefficients Eu-152: 330
  Distribution coefficients Gd: 146
  Distribution coefficients La: 12
  Distribution coefficients Mo: 0.19
  Distribution coefficients Nd: 78
  Distribution coefficients Pd: 0.02
  Distribution coefficients Pr: 35
  Distribution coefficients Rb: 0.008
  Distribution coefficients Rh: 0.003
  Distribution coefficients Ru: 0.23
  Distribution coefficients Sm: 363
  Distribution coefficients Y: 811
  Distribution coefficients Zr: 0.06
[4]
  Distribution coefficients Ag: 0.14
  Distribution coefficients Ba: 0.0008
  Distribution coefficients Cd: 0.034
  Distribution coefficients Ce: 24
  Distribution coefficients Cf-252: 1451
  Distribution coefficients Cm-244: 163
  Distribution coefficients Cs: 0.0006
  Distribution coefficients Eu: 275
  Distribution coefficients Eu-152: 436
  Distribution coefficients Gd: 196
  Distribution coefficients La: 12
  Distribution coefficients Mo: 0.19
  Distribution coefficients Nd: 97
  Distribution coefficients Pd: 0.04
  Distribution coefficients Pr: 43
  Distribution coefficients Rb: 0.008
  Distribution coefficients Rh: 0.003
  Distribution coefficients Ru: 0.18
  Distribution coefficients Sm: 331
  Distribution coefficients Y: 455
  Distribution coefficients Zr: 0.13
[5]
  Distribution coefficients Ag: 6.8
  Distribution coefficients Ba: 0.0008
  Distribution coefficients Cd: 0.015
  Distribution coefficients Ce: 14
  Distribution coefficients Cf-252: 605
  Distribution coefficients Cm-244: 102
  Distribution coefficients Cs: 0.0004
  Distribution coefficients Eu: 299
  Distribution coefficients Eu-152: 393
  Distribution coefficients Gd: 126
  Distribution coefficients La: 8.5
  Distribution coefficients Mo: 0.06
  Distribution coefficients Nd: 49
  Distribution coefficients Pd: 2.2
  Distribution coefficients Pr: 24
  Distribution coefficients Rb: 0.008
  Distribution coefficients Rh: 0.003
  Distribution coefficients Ru: 0.28
  Distribution coefficients Sm: 234
  Distribution coefficients Y: 1119
  Distribution coefficients Zr: 16.5
[6]
  Distribution coefficients Ag: 5.8
  Distribution coefficients Ba: 0.0008
  Distribution coefficients Cd: 0.021
  Distribution coefficients Ce: 17
  Distribution coefficients Cf-252: 1352
  Distribution coefficients Cm-244: 165
  Distribution coefficients Cs: 0.0004
  Distribution coefficients Eu: 267
  Distribution coefficients Eu-152: 499
  Distribution coefficients Gd: 160
  Distribution coefficients La: 10
  Distribution coefficients Mo: 0.09
  Distribution coefficients Nd: 74
  Distribution coefficients Pd: 1.7
  Distribution coefficients Pr: 32
  Distribution coefficients Rb: 0.008
  Distribution coefficients Rh: 0.004
  Distribution coefficients Ru: 0.24
  Distribution coefficients Sm: 266
  Distribution coefficients Y: 574
  Distribution coefficients Zr: 9.1
